Legend:
[1] = molecular target: T1, TBK1 (Homo sapiens, UniProt Q9UHD2); experiment: TR-FRET enzymatic activity assay, TBK1; assay type: biochemical; further: full length recombinant TBK1 at 2.5 nM
T1 construct: TBK1 and IKKε were expressed and purified as full length recombinant proteins; made in house
T1 sequence (Q9UHD2 1-729): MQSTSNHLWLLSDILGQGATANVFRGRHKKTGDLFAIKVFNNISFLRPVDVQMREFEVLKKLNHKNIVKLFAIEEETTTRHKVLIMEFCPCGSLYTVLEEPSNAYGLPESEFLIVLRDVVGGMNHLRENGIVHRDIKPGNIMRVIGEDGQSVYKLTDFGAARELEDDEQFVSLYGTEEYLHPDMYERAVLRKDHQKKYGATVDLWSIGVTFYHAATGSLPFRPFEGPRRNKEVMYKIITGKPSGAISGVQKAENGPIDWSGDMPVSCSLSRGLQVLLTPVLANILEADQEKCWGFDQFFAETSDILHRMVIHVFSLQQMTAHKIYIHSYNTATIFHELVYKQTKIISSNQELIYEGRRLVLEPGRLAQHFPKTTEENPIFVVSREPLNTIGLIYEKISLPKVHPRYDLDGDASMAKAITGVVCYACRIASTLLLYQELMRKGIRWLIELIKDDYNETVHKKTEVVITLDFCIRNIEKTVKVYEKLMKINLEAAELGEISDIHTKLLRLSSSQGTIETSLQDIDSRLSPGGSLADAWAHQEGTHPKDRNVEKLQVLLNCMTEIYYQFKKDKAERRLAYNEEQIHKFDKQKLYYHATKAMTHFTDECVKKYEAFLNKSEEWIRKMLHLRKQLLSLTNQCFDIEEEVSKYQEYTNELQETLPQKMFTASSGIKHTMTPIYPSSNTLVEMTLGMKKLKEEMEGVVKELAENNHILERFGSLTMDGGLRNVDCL
How it was run: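 Full-length recombinant enzymes phosphorylated a biotinylated Ser/Thr peptide for 240 min at 25 °C, stopped with EDTA. Phosphopeptide detected by TR-FRET (streptavidin XL665, Eu-cryptate anti-phospho antibody). IC50 from four-parameter fits normalized to 1 μM staurosporine and DMSO controls, as geometric means of at least four determinations.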

[2] = molecular target: T2, IKKε (Homo sapiens, UniProt Q14164); experiment: TR-FRET enzymatic activity assay, IKKε; assay type: biochemical; conditions: read-out: IKKϵ IC50; further: full length recombinant IKKε at 0.3 nM
T2 construct: TBK1 and IKKε were expressed and purified as full length recombinant proteins; made in house
T2 sequence (Q14164 1-716): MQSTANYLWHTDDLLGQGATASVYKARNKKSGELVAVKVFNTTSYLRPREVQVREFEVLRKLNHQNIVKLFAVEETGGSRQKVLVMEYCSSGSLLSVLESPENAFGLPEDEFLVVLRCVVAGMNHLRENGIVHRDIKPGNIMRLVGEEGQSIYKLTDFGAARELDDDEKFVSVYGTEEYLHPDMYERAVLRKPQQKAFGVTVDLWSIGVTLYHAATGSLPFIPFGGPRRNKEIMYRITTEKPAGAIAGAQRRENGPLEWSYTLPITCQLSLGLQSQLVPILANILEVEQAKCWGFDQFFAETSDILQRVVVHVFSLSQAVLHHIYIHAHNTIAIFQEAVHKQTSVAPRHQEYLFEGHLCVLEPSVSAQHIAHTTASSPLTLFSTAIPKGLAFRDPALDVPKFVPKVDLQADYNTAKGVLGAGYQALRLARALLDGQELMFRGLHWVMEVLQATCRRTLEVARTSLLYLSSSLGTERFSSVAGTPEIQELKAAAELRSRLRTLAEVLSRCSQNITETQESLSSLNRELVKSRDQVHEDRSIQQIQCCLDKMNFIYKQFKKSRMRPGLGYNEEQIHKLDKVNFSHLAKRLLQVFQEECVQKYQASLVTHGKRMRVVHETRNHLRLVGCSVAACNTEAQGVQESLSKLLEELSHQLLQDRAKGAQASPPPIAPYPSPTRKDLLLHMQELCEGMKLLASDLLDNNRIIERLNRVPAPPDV
How it was run: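 Full-length recombinant IKKε phosphorylated a biotinylated Ser/Thr peptide for 240 min at 25 °C; EDTA stop. Phospho-peptide detected by TR-FRET with streptavidin-XL665 (125 nM) and Eu-cryptate anti-phospho antibody. Normalised to staurosporine and DMSO controls; IC50 from four-parameter fit, geometric mean of ≥4 runs.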

SMILES	IC50 [1]	IC50 [2]
N#Cc1cc(-c2ccnc(NC(=O)[C@H]3C[C@@H]3c3cccnc3)c2)ccc1O[C@H]1CCN(C(=O)CO)CC1(F)F [Example 142, (1S,2S)—N-(4-(3-cyano-4-(((S)-3,3-difluoro-1-(2-hydroxyacetyl)piperidin-4-yl)oxy)phenyl)pyridin-2-yl)-2-(pyridin-3-yl)cyclopropane-1-carboxamide]	5.7 nM	6 nM
N#Cc1cc(-c2ccnc(NC(=O)[C@@H]3C[C@H]3c3ccno3)c2)ccc1OC1CCOCC1 (relative stereo) [Example 102, trans-1,2-N-(4-(3-cyano-4-((tetrahydro-2H-pyran-4-yl)oxy)phenyl)pyridin-2-yl)-2-(isoxazol-5-yl)cyclopropane-1-carboxamide]	33.4 nM	196 nM
N#Cc1cc(-c2ccnc(NC(=O)C3CC3)c2)ccc1CC1CCOCC1 [Example 98, N-(4-(3-cyano-4-((tetrahydro-2H-pyran-4-yl)methyl)phenyl)pyridin-2-yl)cyclopropanecarboxamide]	> 1000 nM	> 1000 nM
N#Cc1cc(-c2ccnc(NC(=O)C3CC3c3nc[nH]n3)c2)ccc1O[C@H]1CCN(C(=O)CO)C[C@H]1F (stereo partly drawn) [Example 76, N-(4-(3-Cyano-4-(((3R,4S)-3-fluoro-1-(2-hydroxyacetyl)piperidin-4-yl)oxy)phenyl)pyridin-2-yl)-2-(1H-1,2,4-triazol-3-yl)cyclopropane-1-carboxamide]	256 nM	357 nM
Cn1cc([C@@H]2C[C@H]2C(=O)Nc2cc(-c3ccc(O[C@H]4CCN(C(=O)[C@@H](O)CO)CC4(F)F)c(C#N)c3)ncn2)cn1 [Example 132, (1,2-Trans)-N-(6-(3-cyano-4-(((S)-1-((S)-2,3-dihydroxypropanoyl)-3,3-difluoropiperidin-4-yl)oxy)phenyl)pyrimidin-4-yl)-2-(1-methyl-1H-pyrazol-4-yl)cyclopropane-1-carboxamide]	4.7 nM	12.3 nM
N#Cc1cc(-c2cc(NC(=O)C3CC3)ncn2)ccc1O[C@H]1CCN(C(=O)[C@@H](O)CO)C[C@H]1F [Example 21, N-(6-(3-cyano-4-(((3R,4S)-1-((S)-2,3-dihydroxypropanoyl)-3-fluoropiperidin-4-yl)oxy)phenyl)pyrimidin-4-yl)cyclopropanecarboxamide]	6.1 nM	31.3 nM
Cn1cc(C(=O)N2CC[C@H](Oc3ccc(-c4cc(NC(=O)C5CC5)ncn4)cc3C#N)[C@H](F)C2)nn1 [Example 27, N-(6-(3-cyano-4-(((3R,4S)-3-fluoro-1-(1-methyl-1H-1,2,3-triazole-4-carbonyl)piperidin-4-yl)oxy)phenyl)pyrimidin-4-yl)cyclopropanecarboxamide]	18.1 nM	29.6 nM
N#Cc1cc(-c2ccnc(NC(=O)C3CC3)c2)ccc1N1CC[C@H](O)C1 [Example 16, (S)—N-(4-(3-cyano-4-(3-hydroxypyrrolidin-1-yl)phenyl)pyridin-2-yl)cyclopropanecarboxamide]	52.3 nM	353 nM
N#Cc1cc(-c2ccnc(NC(=O)[C@H]3C[C@@H]3[N+](=O)[O-])c2)ccc1OC1CCOCC1 (relative stereo) [Example 86, (1,2 trans)-N-(4-(3-cyano-4-((tetrahydro-2H-pyran-4-yl)oxy)phenyl)pyridin-2-yl)-2-nitrocyclopropane-1-carboxamide]	529 nM	314 nM
N#Cc1cc(-c2cc(NC(=O)[C@@H]3C[C@H]3c3cccnc3)ncn2)ccc1O[C@H]1CCN(C(=O)[C@@H](O)CO)CC1(F)F [Example 144, (1,2-Trans)-N-(6-(3-cyano-4-(((S)-1-((S)-2,3-dihydroxypropanoyl)-3,3-difluoropiperidin-4-yl)oxy)phenyl)pyrimidin-4-yl)-2-(pyridin-3-yl)cyclopropane-1-carboxamide]	7.1 nM	9 nM
C[C@H](O)C(=O)N1CC[C@H](Oc2ccc(-c3ccnc(NC(=O)C4CC4)c3)cc2C#N)[C@H](F)C1 [Example 9, N-(4-(3-cyano-4-(((3R,4S)-3-fluoro-1-((S)-2-hydroxypropanoyl)piperidin-4-yl)oxy)phenyl)pyridin-2-yl)cyclopropanecarboxamide]	15.2 nM	46.4 nM
N#Cc1cc(-c2ccnc(NC(=O)C3CC3)c2)ccc1O[C@H]1CCN(C(=O)CCO)CC1(F)F [Example 15, (S)—N-(4-(3-cyano-4-((3,3-difluoro-1-(3-hydroxypropanoyl)piperidin-4-yl)oxy)phenyl)pyridin-2-yl)cyclopropanecarboxamide]	23.2 nM	84.2 nM
Cn1cc(C2C[C@H]2C(=O)Nc2cc(-c3ccc(O[C@H]4CCN(C(=O)CO)CC4(F)F)c(C#N)c3)ccn2)cn1 (stereo in doubt) [Example 89, (1,2-trans)-N-(4-(3-cyano-4-(((S)-3,3-difluoro-1-(2-hydroxyacetyl)piperidin-4-yl)oxy)phenyl)pyridin-2-yl)-2-(1-methyl-1H-pyrazol-4-yl)cyclopropane-1-carboxamide]	4.5 nM	2.4 nM
CCOC(=O)[C@@H]1C[C@H]1C(=O)Nc1cc(-c2ccc(OC3CCOCC3)c(C#N)c2)ncn1 (relative stereo) [Example 35, (trans)-ethyl 2-((6-(3-cyano-4-((tetrahydro-2H-pyran-4-yl)oxy)phenyl)pyrimidin-4-yl)carbamoyl)cyclopropanecarboxylate]	485 nM	> 1000 nM
N#Cc1cc(-c2ccnc(NC(=O)[C@H]3C[C@@H]3F)c2)ccc1O[C@H]1CCN(C(=O)CO)C[C@H]1F [Example 60, (1R,2S)—N-(4-(3-cyano-4-(((3R,4S)-3-fluoro-1-(2-hydroxyacetyl)piperidin-4-yl)oxy)phenyl)pyridin-2-yl)-2-fluorocyclopropanecarboxamide]	15.7 nM	46.3 nM
Cn1cc([C@@H]2C[C@H]2C(=O)Nc2cc(-c3ccc(O[C@H]4CCN(C(=O)CO)C[C@H]4F)c(C#N)c3)ncn2)cn1 [Example 143, (1,2-Trans)-N-(6-(3-cyano-4-(((3R,4S)-3-fluoro-1-(2-hydroxyacetyl)piperidin-4-yl)oxy)phenyl)pyrimidin-4-yl)-2-(1-methyl-1H-pyrazol-4-yl)cyclopropane-1-carboxamide]	19.9 nM	44.3 nM
COC(=O)[C@@H]1C[C@H]1C(=O)Nc1cc(-c2ccc(O[C@H]3CCN(C(=O)CO)C[C@H]3F)c(C#N)c2)ccn1 (relative stereo) [Example 83, Methyl (1,2-trans)-2-((4-(3-cyano-4-(((3R,4S)-3-fluoro-1-(2-hydroxyacetyl)piperidin-4-yl)oxy)phenyl)pyridin-2-yl)carbamoyl)cyclopropane-1-carboxylate]	47.9 nM	53.3 nM
N#Cc1cc(-c2ccnc(NC(=O)[C@@H]3C[C@H]3c3cccnc3)c2)ccc1O[C@H]1CCN(C(=O)CO)C[C@H]1F [Example 135, (1R,2R)—N-(4-(3-cyano-4-(((3R,4S)-3-fluoro-1-(2-hydroxyacetyl)piperidin-4-yl)oxy)phenyl)pyridin-2-yl)-2-(pyridin-3-yl)cyclopropane-1-carboxamide]	21.4 nM	27.4 nM
CN(C)C[C@@H]1C[C@H]1C(=O)Nc1cc(-c2ccc(OC3CCOCC3)c(C#N)c2)ccn1 (relative stereo) [Example 41, (1,2-trans)-N-(4-(3-cyano-4-((tetrahydro-2H-pyran-4-yl)oxy)phenyl)pyridin-2-yl)-2-((dimethylamino)methyl)cyclopropane-1-carboxamide]	267 nM	80.3 nM
